Reference: patent publication US20130165464A1, “HETEROARYLS AND USES THEREOF” (MILLENNIUM PHARMACEUTICALS, INC., priority 2011, published 2013)

Molecular target: T1, VPS34 (Homo sapiens, UniProt Q8NEB9)
T1 construct: GST (N); host or cells: SF9 insect cells (baculovirus)
Assay: Human VPS34 enzyme assay (Adapta TR-FRET)
Format: biochemical
Conditions: for inhibition at 1.11 µM: 1 h, at a 1.11 μM concentration, read-out: VPS34 Percent Inhibition
Experimental: VPS34 (accession number GB:BCO33004) was cloned into pDEST20-Thombin as N-terminal GST tagged fusion proteins using the Gateway system (Invitrogen, catalog#11804-013). The sequences were verified before recombinant protein expression using the Baculovirus Expression System with Gateway® Technology.
For expression VPS34 was infected at 1MOI in SF9 cells and harvested 72 hours post infection.
For purification, VPS34 is purified by Glutathione Sepharose 4 Fast Flow (GE Healthcare #17-5132-03) followed by HiTrap Q (GE Healthcare #17-1153-01).
Human VPS34 Enzyme Assay Method
100 nL compounds in DMSO are added to wells of a 384 well microtitre plate (Greiner 780076). At room temperature: 5 ul VPS34 reaction buffer (Invitrogen Assay Buffer Q (diluted 1 in 5 with nanopure water) plus 2 mM DTT and 2 mM MnCl2) containing ATP (20 uM, Promega) and 200 uM PI-PS substrate (Invitrogen PV5122) is added followed immediately by 5 ul VPS34 reaction buffer (as above) containing VPS34 (5 nM, Millennium Protein Sciences Group) and the mixture is incubated with shaking at room temperature for 1 hour. Then 5 ul VPS34 stop-detect mix (as per Invitrogen Adapta Assay kit (PV5009) instructions (contains kinase quench buffer, TR-FRET buffer, Adapta Eu anti-ADP antibody and Alexa Fluor 647 ADP tracer)) is added to quench the reaction. The plates are then incubated for 30 minutes at room temperature with shaking and then read on a BMG PheraStar Plus reader.
For the assay methods described above, test compound percent inhibition, at various concentrations, is calculated relative to control (DMSO and EDTA) treated samples. Compound concentration versus percent inhibition curves are fitted to generate IC50 values. One skilled in the art will appreciate that the values generated either as percentage inhibition at a single concentration or IC50 values are subject to experimental variation.

T1 sequence (Q8NEB9 whole entry): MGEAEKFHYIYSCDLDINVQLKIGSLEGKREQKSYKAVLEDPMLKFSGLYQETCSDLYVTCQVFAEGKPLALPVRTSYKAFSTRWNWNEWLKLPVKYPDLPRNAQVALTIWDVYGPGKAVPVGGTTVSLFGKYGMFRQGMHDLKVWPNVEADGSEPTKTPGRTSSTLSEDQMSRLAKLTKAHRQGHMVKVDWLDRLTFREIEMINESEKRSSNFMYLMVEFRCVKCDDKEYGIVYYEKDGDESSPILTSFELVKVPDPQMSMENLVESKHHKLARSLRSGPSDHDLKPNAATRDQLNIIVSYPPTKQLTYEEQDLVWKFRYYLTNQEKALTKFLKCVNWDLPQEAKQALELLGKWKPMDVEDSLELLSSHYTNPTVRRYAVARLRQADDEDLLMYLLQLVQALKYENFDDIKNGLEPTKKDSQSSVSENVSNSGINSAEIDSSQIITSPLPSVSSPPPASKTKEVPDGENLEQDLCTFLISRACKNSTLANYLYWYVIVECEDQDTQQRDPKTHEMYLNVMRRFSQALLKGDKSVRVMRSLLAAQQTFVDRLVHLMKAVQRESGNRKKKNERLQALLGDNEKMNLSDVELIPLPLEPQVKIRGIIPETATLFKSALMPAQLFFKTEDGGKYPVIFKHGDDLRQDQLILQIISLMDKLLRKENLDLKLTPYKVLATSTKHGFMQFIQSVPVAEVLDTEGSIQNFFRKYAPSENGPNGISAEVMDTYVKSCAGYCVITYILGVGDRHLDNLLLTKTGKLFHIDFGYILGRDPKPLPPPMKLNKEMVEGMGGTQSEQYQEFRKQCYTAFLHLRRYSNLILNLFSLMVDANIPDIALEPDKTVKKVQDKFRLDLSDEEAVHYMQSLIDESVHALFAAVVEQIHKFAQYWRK

inhibition at 1.11 µM [%]	IC50 [µM]	SMILES
> 99	–	Cc1cnc(NC(=O)C2CC2)cc1-n1cc(-c2nc[nH]n2)c(-c2ccc(Cl)cc2Cl)n1 [I-67, N-{4-[3-(2,4-dichlorophenyl)-4-(1H-1,2,4-triazol-3-yl)-1H-pyrazol-1-yl]-5-methylpyridin-2-yl}cyclopropanecarboxamide]
> 99	–	Cc1cnc(NC(=O)OCCF)cc1-n1cc(C(N)=O)c(-c2ccccc2Cl)c1 [I-83, 2-fluoroethyl {4-[3-carbamoyl-4-(2-chlorophenyl)-1H-pyrrol-1-yl]-5-methylpyridin-2-yl}carbamate]
20	1 to 5	CC(=O)Nc1cc(-n2cc(C(N)=O)c(-c3cc(CN(C)C)ccc3Cl)c2)c(C)cn1 [I-70, 1-(2-acetamido-5-methylpyridin-4-yl)-4-{2-chloro-5-[(dimethylamino)methyl]phenyl}-1H-pyrrole-3-carboxamide]
93	0.15 to 1	CC(=O)Nc1cc(-n2cc(CO)c(-c3ccccc3Cl)c2)c(C)cn1 [I-85, N-{4-[3-(2-chlorophenyl)-4-(hydroxymethyl)-1H-pyrrol-1-yl]-5-methylpyridin-2-yl}acetamide]
> 99	–	CCN(CC)Cc1ccc(Cl)c(-c2nn(-c3cc(NC(C)=O)ncc3C)cc2-c2nc[nH]n2)c1 [I-58, N-{4-[3-{2-chloro-5-[(diethylamino)methyl]phenyl}-4-(1H-1,2,4-triazol-3-yl)-1H-pyrazol-1-yl]-5-methylpyridin-2-yl}acetamide]
78	–	CC(=O)Nc1cc(-n2cc(C(N)=O)c(-c3ccccc3Cl)c2)c(C)cn1 [I-41, 1-(2-acetamido-5-methylpyridin-4-yl)-4-(2-chlorophenyl)-1H-pyrrole-3-carboxamide]
56	0.15 to 1	COc1ccccc1-c1nn(-c2cc(NC(C)=O)ncc2C)cc1-c1nc[nH]n1 [I-49, N-{4-[3-(2-methoxyphenyl)-4-(1H-1,2,4-triazol-3-yl)-1H-pyrazol-1-yl]-5-methylpyridin-2-yl}acetamide]
> 99	–	COC(=O)Nc1cc(-n2cc(C(N)=O)c(-c3cc(CN4CCCC4)ccc3Cl)c2)c(C)cn1 [I-80, methyl (4-{3-carbamoyl-4-[2-chloro-5-(pyrrolidin-1-ylmethyl)phenyl]-1H-pyrrol-1-yl}-5-methylpyridin-2-yl)carbamate]
71	0.15 to 1	Cc1cnc(NC(=O)OC2CCCCC2)cc1-n1cc(C(N)=O)c(-c2ccccc2Cl)c1 [I-72, cyclohexyl {4-[3-carbamoyl-4-(2-chlorophenyl)-1H-pyrrol-1-yl]-5-methylpyridin-2-yl}carbamate]
23	1 to 5	CC(=O)Nc1cc(-n2cc(-c3nc[nH]n3)c(-c3cc(CN(C)C)ccc3Cl)c2)c(C)cn1 [I-76, N-{4-[3-{2-chloro-5-[(dimethylamino)methyl]phenyl}-4-(1H-1,2,4-triazol-3-yl)-1H-pyrrol-1-yl]-5-methylpyridin-2-yl}acetamide]
> 99	–	Cc1cnc(NC(=O)OC2CCCCC2)cc1-n1cc(-c2nc[nH]n2)c(-c2ccccc2Cl)c1 [I-73, cyclohexyl {4-[3-(2-chlorophenyl)-4-(1H-1,2,4-triazol-3-yl)-1H-pyrrol-1-yl]-5-methylpyridin-2-yl}carbamate]
> 99	–	CC(=O)Nc1cc(-n2cc(-c3nc[nH]n3)c(-c3ccccc3C(F)(F)F)n2)c(C)cn1 [I-48, N-(5-methyl-4-{4-(1H-1,2,4-triazol-3-yl)-3-[2-(trifluoromethyl)phenyl]-1H-pyrazol-1-yl}pyridin-2-yl)acetamide]
> 99	0.15 to 1	Cc1cnc(NC(=O)C2CC2)cc1-n1cc(C(N)=O)c(-c2cc(CN3CCCC3)ccc2Cl)c1 [I-71, 4-[2-chloro-5-(pyrrolidin-1-ylmethyl)phenyl]-1-{2-[(cyclopropylcarbonyl)amino]-5-methylpyridin-4-yl}-1H-pyrrole-3-carboxamide]
> 99	< 0.05	COC(=O)Nc1cc(-n2cc(-c3nc[nH]n3)c(-c3ccccc3Cl)c2)c(C)cn1 [I-55, methyl {4-[3-(2-chlorophenyl)-4-(1H-1,2,4-triazol-3-yl)-1H-pyrrol-1-yl]-5-methylpyridin-2-yl}carbamate]
> 99	–	CC(=O)Nc1cc(-n2cc(-c3nc[nH]n3)c(-c3ccccc3C#N)n2)c(C)cn1 [I-52, N-{4-[3-(2-cyanophenyl)-4-(1H-1,2,4-triazol-3-yl)-1H-pyrazol-1-yl]-5-methylpyridin-2-yl}acetamide]
> 99	–	COCCC(=O)Nc1cc(-n2cc(-c3nc[nH]n3)c(-c3ccccc3Cl)c2)c(C)cn1 [I-74, N-{4-[3-(2-chlorophenyl)-4-(1H-1,2,4-triazol-3-yl)-1H-pyrrol-1-yl]-5-methylpyridin-2-yl}-3-methoxypropanamide]
> 99	–	COC(=O)Nc1cc(-n2cc(-c3nc[nH]n3)c(-c3cc(CN4CCCC4)ccc3Cl)n2)c(C)cn1 [I-61, methyl (4-{3-[2-chloro-5-(pyrrolidin-1-ylmethyl)phenyl]-4-(1H-1,2,4-triazol-3-yl)-1H-pyrazol-1-yl}-5-methylpyridin-2-yl)carbamate]
> 99	–	COCCC(=O)Nc1cc(-n2cc(C(N)=O)c(-c3ccccc3Cl)c2)c(C)cn1 [I-79, 4-(2-chlorophenyl)-1-{2-[(3-methoxypropanoyl)amino]-5-methylpyridin-4-yl}-1H-pyrrole-3-carboxamide]

Second part, the molecule before the results:

SMILES	inhibition at 1.11 µM [%]	IC50 [µM]
CC(=O)Nc1cc(-n2cc(-c3ncc[nH]3)c(-c3ccccc3Cl)n2)ccn1 [I-32, N-{4-[3-(2-chlorophenyl)-4-(1H-imidazol-2-yl)-1H-pyrazol-1-yl]pyridin-2-yl}acetamide]	> 99	< 0.05
O=C(Nc1cc(-n2cc(-c3nc[nH]n3)c(-c3ccccc3Cl)n2)ccn1)C1CC1 [I-23, N-{4-[3-(2-chlorophenyl)-4-(1H-1,2,4-triazol-3-yl)-1H-pyrazol-1-yl]pyridin-2-yl}cyclopropanecarboxamide]	> 99	< 0.05
COc1ccc(-c2nn(-c3cc(NC(C)=O)ncc3C)cc2-c2nc[nH]n2)c(Cl)c1 [I-35, N-{4-[3-(2-chloro-4-methoxyphenyl)-4-(1H-1,2,4-triazol-3-yl)-1H-pyrazol-1-yl]-5-methylpyridin-2-yl}acetamide]	> 99	< 0.05
CC(=O)Nc1cc(-n2cc(C(N)=O)c(-c3ccccc3Cl)n2)c(Cl)cn1 [I-9, 1-(2-acetamido-5-chloropyridin-4-yl)-3-(2-chlorophenyl)-1H-pyrazole-4-carboxamide]	> 99	0.15 to 1
CC(=O)Nc1cc(-n2cc(-c3ccn[nH]3)c(-c3ccccc3Cl)n2)ccn1 [I-25, N-{4-[3′-(2-chlorophenyl)-1H,1′H-3,4′-bipyrazol-1′-yl]pyridin-2-yl}acetamide]	> 99	< 0.05
Cc1cnc(NC(=O)C(C)C)cc1-n1cc(-c2nc[nH]n2)c(-c2ccccc2Cl)c1 [I-26, N-{4-[3-(2-chlorophenyl)-4-(1H-1,2,4-triazol-3-yl)-1H-pyrrol-1-yl]-5-methylpyridin-2-yl}-2-methylpropanamide]	78	0.15 to 1
CC(=O)Nc1cc(-n2nc(-c3ccccc3Cl)c(-c3nc[nH]n3)c2Br)c(Br)cn1 [I-4, N-{5-bromo-4-[5-bromo-3-(2-chlorophenyl)-4-(1H-1,2,4-triazol-3-yl)-1H-pyrazol-1-yl]pyridin-2-yl}acetamide]	18	1 to 5
CCC(=O)Nc1cc(-n2cc(C(N)=O)c(-c3ccccc3Cl)c2)c(C)cn1 [I-28, 4-(2-chlorophenyl)-1-[5-methyl-2-(propionylamino)pyridin-4-yl]-1H-pyrrole-3-carboxamide]	> 99	< 0.05
Cc1cnc(NC(=O)C2CC2)cc1-n1cc(C(N)=O)c(-c2ccccc2Cl)c1 [I-40, 4-(2-chlorophenyl)-1-{2-[(cyclopropylcarbonyl)amino]-5-methylpyridin-4-yl}-1H-pyrrole-3-carboxamide]	> 99	< 0.05
CC(=O)Nc1cc(-n2cc(C(N)=O)c(-c3ccccc3Cl)n2)ccn1 [I-8, 1-(2-acetamidopyridin-4-yl)-3-(2-chlorophenyl)-1H-pyrazole-4-carboxamide]	> 99	–
CC(=O)Nc1cc(-n2cc(C(N)=O)c(-c3ccc(Cl)cc3Cl)n2)ccn1 [I-13, 1-(2-acetamidopyridin-4-yl)-3-(2,4-dichlorophenyl)-1H-pyrazole-4-carboxamide]	> 99	–
CC(=O)Nc1cc(-n2cc(-c3ccccc3Cl)c(C(N)=O)n2)ccn1 [I-20, 1-(2-acetamidopyridin-4-yl)-4-(2-chlorophenyl)-1H-pyrazole-3-carboxamide]	29	1 to 5
